In patent publication US20240076347A1, “METHODS FOR PREVENTING FUNGAL INFECTIONS” (Cidara Therapeutics, Inc., priority 2016, published 2024):
Numbered stars: 1 amine (or outer) side, 2 acyl side, 3 side chain; on linkers, the order of the positions; unused ones are H or OH. Bridge positions count the residues as written; N and C are the ends. Square brackets hold non-standard residues; d marks the D form. Peptide text beside a SMILES is read from it. * marks the point of attachment. ξ: configuration not given here. Orn(4R-OH,5R-OCH2CH2NMe3+) = C[N+](C)(C)CCO[C@@H](N[*:3])[C@H](O)C[C@H](N[*:1])C(=O)[*:2]; pTerphenylCO(4''-OnC5H11) = CCCCCOc1ccc(-c2ccc(-c3ccc(C(=O)*)cc3)cc2)cc1; hTyr(3S-OH,4S-OH) = N[C@H](C(=O)O)[C@H](O)[C@@H](O)c1ccc(O)cc1; X1 = C[C@H]1CN([*:1])C(C(=O)[*:2])C1O; Hyp = O=C(O)[C@@H]1C[C@@H](O)CN1; ξT = CC(O)C(N)C(=O)O

Tested on: C. albicans strain 529L
Test: Rat model of vulvovaginal candidiasis, vaginal lavage and tissue burden
Type: in vivo, Candida albicans
Conditions: for reduction in terminal vaginal tissue burden: not statistically lower than vehicle
Procedure: Animal Strain. Wistar rats were supplied by Harlan Laboratories UK and were specific pathogen free. Rats weighed […] at the time of surgery. Ovariectomies were performed. Rats were allowed 4-7 days recovery before transportation to the facility where the experiment was to be performed. Following arrival, rats were allowed at least 4 days acclimatization before start of the experiment. Rats weighed 100-120 g at the time of ovariectomy and were about 300 g at start of the experiment.
Pre-conditioning. Female Wistar rats underwent ovariectomy at least 10 days prior to the study commencing. They were further pre-conditioned by treatment with 5 mg/kg 17-β-estradiol administered subcutaneously (SC) every other day on Days −7, −5, −3 and −1 prior to infection with C. albicans strain 529. Estradiol treatment continued every other day throughout the study to 7 days post-infection.
Yeast Isolate. Candida albicans strain 529L was used in this chronic rat vaginal infection model.
Infection. Yeast strains were inoculated aerobically onto Sabouraud dextrose agar media (SAB) containing 0.05 mg/mL chloramphenicol and incubated at 30° C. for 48-72 h. 18-24 h prior to infection, Yeast Peptone Dextrose (YPD) broths were inoculated with 2-3 isolated colonies from agar plates and incubated overnight (37° C. on an orbital shaker). Broths containing C. albicans strain 529L were washed 3 times with sterile phosphate buffered saline (PBS) before dilution to the correct inoculum for infection. Cell counts were determined using a haemocytometer and confirmed by quantitative culture on Sabouraud dextrose agar.
Rats were infected with 0.1 mL by intravaginal administration under inhaled isoflurane anaesthesia using about 9.8×10^5 CFU/mL (9.8×10^4 CFU/Rat) C. albicans strain 529L
Treatment. […] The fluconazole treatment also started at 24 h post infection but was administered by the PO route at the dose volume and frequency shown in Table 7. The study design is further outlined in FIG. 19.
Reduction in weight and general loss of condition due to estradiol treatment are also typical in this rat model. Colonization with C. albicans was determined by quantitative culture of daily vaginal lavage samples. Rats were euthanized 9 days post infection and C. albicans determined by quantitative culture of vaginal tissue (including uterine horns).
Lavage samples were obtained on Days 1 (pre-treatment), 2, 3, 5, 7, and 9 days post infection by flushing rat vaginas 4 times with 0.1 mL pre-warmed sterile PBS. Following euthanasia, vaginal tissue including uterine horns was removed prior to weighing. Tissues were homogenized in 2 mL sterile PBS using a bead-beater. Vaginal wash and tissue homogenates were diluted appropriately then quantitatively cultured on to Sabouraud dextrose agar containing 0.05 mg/mL chloramphenicol and incubated at 37° C. for up to 72 h before being counted.
Statistical analysis. Data were analyzed using StatsDirect software (version 2.7.8) using the non-parametric Kruskal-Wallis test and if this was statistically significant all pairwise comparisons were analyzed (Conover-Inman).

[1] = lavage Day 1 post treatment (Day 2 post infection), 5 mg/kg SC dosed once
[2] = lavage Day 1 post treatment (Day 2 post infection), 5 mg/kg SC dosed twice
[3] = lavage Day 1 post treatment (Day 2 post infection), 10 mg/kg SC dosed once
[4] = lavage Day 2 post treatment (Day 3 post infection), 5 mg/kg SC dosed once
[5] = lavage Day 2 post treatment (Day 3 post infection), 5 mg/kg SC dosed twice
[6] = lavage Day 2 post treatment (Day 3 post infection), 10 mg/kg SC dosed once
[7] = lavage Day 4 post treatment (Day 5 post infection), 5 mg/kg SC dosed once
[8] = lavage Day 4 post treatment (Day 5 post infection), 5 mg/kg SC dosed twice
[9] = lavage Day 4 post treatment (Day 5 post infection), 10 mg/kg SC dosed once
[10] = lavage Day 5 post infection, 10 mg/kg SC once
[11] = lavage Day 6 post treatment (Day 7 post infection), 5 mg/kg SC dosed once
[12] = lavage Day 6 post treatment (Day 7 post infection), 5 mg/kg SC dosed twice
[13] = lavage Day 6 post treatment (Day 7 post infection), 10 mg/kg SC dosed once
[14] = lavage Day 8 post treatment (Day 9 post infection), 5 mg/kg SC dosed once

CCCCCOc1ccc(-c2ccc(-c3ccc(C(=O)N[C@H]4C[C@@H](O)[C@@H](OCC[N+](C)(C)C)NC(=O)C5C(O)[C@@H](C)CN5C(=O)[C@H]([C@@H](C)O)NC(=O)[C@H]([C@H](O)[C@@H](O)c5ccc(O)cc5)NC(=O)[C@@H]5C[C@@H](O)CN5C(=O)C(C(C)O)NC4=O)cc3)cc2)cc1 (stereo partly drawn) [CD101] ({pTerphenylCO(4''-OnC5H11)}-[Orn(4R-OH,5R-OCH2CH2NMe3+)][ξT][Hyp][hTyr(3S-OH,4S-OH)]T[X1]; lactam 1-C)
reduction in terminal vaginal tissue burden (5 mg/kg SC once, Day 9): about 0.4 Log10 CFU/g | reduction in terminal vaginal tissue burden (5 mg/kg SC twice, Day 9): about 0.9 Log10 CFU/g | rats with tissue burdens below the levels of detection (10 mg/kg SC once, Day 9): 5/6 | CFU (10 mg/kg SC once, all but one rat, Day 9): undetectable CFU | Group Geometric mean [1]: 3.34 × 10^2 CFU/mL | Log Group Geometric mean [1]: 2.52 CFU/mL | Log reduction from vehicle control [1]: 1.17 CFU/mL | Group Geometric mean [2]: 2.56 × 10^2 CFU/mL | Log Group Geometric mean [2]: 2.41 CFU/mL | Log reduction from vehicle control [2]: 1.29 CFU/mL | Group Geometric mean [3]: 2.48 × 10^2 CFU/mL | Log Group Geometric mean [3]: 2.39 CFU/mL | Log reduction from vehicle control [3]: 1.30 CFU/mL | burden vs vehicle, statistics (lavage Day 2 post infection): neither the CD101 nor fluconazole burden was statistically different from the vehicle burden | reduction in burden (lavage Day 2 post infection, all doses of CD101): about 1.3 Log10 CFU/mL | Group Geometric mean [4]: 1.21 × 10^2 CFU/mL | Log Group Geometric mean [4]: 2.08 CFU/mL | Log reduction from vehicle control [4]: 1.49 CFU/mL | Group Geometric mean [5]: 1.95 × 10^2 CFU/mL | Log Group Geometric mean [5]: 2.29 CFU/mL | Log reduction from vehicle control [5]: 1.28 CFU/mL | Group Geometric mean [6]: 23.2 CFU/mL | Log Group Geometric mean [6]: 1.37 CFU/mL | Log reduction from vehicle control [6]: 2.21 CFU/mL | burden vs vehicle, statistics (lavage Day 3 post infection, all treatments): statistically different from the vehicle treatments | Group Geometric mean [7]: 1.70 × 10^3 CFU/mL | Log Group Geometric mean [7]: 3.23 CFU/mL | Log reduction from vehicle control [7]: 0.99 CFU/mL | Group Geometric mean [8]: 1.73 × 10^3 CFU/mL | Log Group Geometric mean [8]: 3.24 CFU/mL | Log reduction from vehicle control [8]: 0.98 CFU/mL | Group Geometric mean [9]: 1.73 CFU/mL | Log Group Geometric mean [9]: 0.24 CFU/mL | Log reduction from vehicle control [9]: 3.98 CFU/mL | burden reduced to (lavage Day 5 post infection, 5 mg/kg SC once or twice, not statistically different from vehicle): about 1 Log10 CFU/m | burden reduced to [10]: about 4 Logo CFU/mL | rats having burden below the limit of detection [10]: 5/6 | Group Geometric mean [11]: 4.56 × 10^3 CFU/mL | Log Group Geometric mean [11]: 3.66 CFU/mL | Log reduction from vehicle control [11]: 0.52 CFU/mL | Group Geometric mean [12]: 6.47 × 10^2 CFU/mL | Log Group Geometric mean [12]: 2.81 CFU/mL | Log reduction from vehicle control [12]: 1.37 CFU/mL | Group Geometric mean [13]: 2.59 CFU/mL | Log Group Geometric mean [13]: 0.41 CFU/mL | Log reduction from vehicle control [13]: 3.77 CFU/mL | Group Geometric mean [14]: 4.58 × 10^3 CFU/mL | Log Group Geometric mean [14]: 3.66 CFU/mL
